Laboratory results taken from patent publication US20230248034A1, “A SWEETENER OR SWEETNESS ENHANCER COMPOSITION” (ANALYTICON DISCOVERY GMBH, priority 2020, published 2023).

How the values were obtained:
[1] = Organoleptic test of the compounds against sucrose (sweetness); format: in vivo; design: key: 3: sweeter than the control solution; 2: sweetness comparable with the control solution; 1: less sweet than the control solution but still sweet; conditions: 0.4 mg/ml (400 ppm) in non-carbonated mineral water vs sucrose 20 g/l; panel of 3-4 panelists
Protocol: The isolated pure compound was dissolved in non-carbonated mineral water (“Evian”) in a concentration of 0.4 mg/ml (400 ppm). The sweet taste of each sample was compared by a panel of 3-4 panelists with a solution of sucrose in a concentration of 20 g/l.

[2] = Organoleptic test in combination with sucrose against sucrose (sucrose enhancement, 2-AFC); format: in vivo; design: key: x = detected; conditions: compound below its sweetness perception level in 6% sucrose vs 6% sucrose, 12 to 15 panelists
Protocol: The isolated pure compounds were dissolved in non-carbonated mineral water (“Evian”) in a concentration of 50 ppm (0.05 mg/ml), 25 ppm (0.025 mg/ml), 12.5 pm (0.0125 mg/ml) and […] (0.00625 mg/ml). The sweet taste of each sample was detected by a panel of 3-4 panelists to detect the sweetness perception level. The highest concentration below the sweetness perception level was used for the evaluation of the sweet taste enhancement of sucrose.
(§1) A solution of the isolated compound in a concentration below the sweetness perception level was dissolved in 6% sucrose solution. The sweet taste of this sample was compared to the sweet taste of a 6% sucrose solution by a panel of 12 to 15 panelists in a two-alternative forced-choice test (2-AFC. E2164-16_Standard Test Method for Directional Difference Test). The panelists were trained to differentiate between the sweetness of a 6% and a 7% Sucrose solution.

[3] = Organoleptic test in combination with Rebaudioside M (Rebaudioside M enhancement, 2-AFC); format: in vivo; design: key: x = detected; conditions: compound below its sweetness perception level in 150 ppm Rebaudioside M vs 150 ppm Rebaudioside M, 12 to 15 panelists
Protocol: The isolated pure compounds were dissolved in non-carbonated mineral water (“Evian”) in a concentration of 50 ppm (0.05 mg/ml), 25 ppm (0.025 mg/ml), 12.5 pm (0.0125 mg/ml) and 6.125 ppm (0.006125 mg/ml). The sweet taste of each sample was detected by a panel of 3-4 panelists to detect the sweetness perception level. The highest concentration below the sweetness perception level was used for the evaluation of the sweet taste enhancement of Rebaudioside M.
as §1, with “compounds” for “compound”, “150 ppm Rebaudioside M” for “6% sucrose”, “150 ppm” for “6%”, “190 ppm Rebaudioside M” for “7% Sucrose”

[4] = 5% sucrose in water; cited from earlier work

Compound | Sweetness [1] | Sucrose enhancement [2] | Reb M enhancement [3] | enhancement of the sweetness of sucrose [4]
C[C@@H]1O[C@@H](O[C@H]2[C@H](OC(=O)[C@]34CCC(C)(C)C[C@H]3C3=CCC5[C@@]6(C)CC[C@H](O[C@@H]7O[C@H](CO[C@@H]8OC[C@H](O)[C@H](O)[C@H]8O)[C@@H](O)[C@H](O)[C@H]7O)C(C)(C)C6CC[C@@]5(C)[C@]3(C)C[C@H]4O)OC[C@@H](O)[C@@H]2O)[C@H](O)[C@H](O[C@@H]2OC[C@](O)(CO)[C@H]2O)[C@H]1O[C@@H]1OC[C@H](O)[C@H](O[C@@H]2OC[C@@H](O)[C@H](O)[C@H]2O)[C@H]1O (stereo partly shown) [Astersaponin B] | 1 | x | x | 
COc1ccc([C@@H]2CC(=O)c3c(O)cc(O)cc3O2)cc1O [hesperetin] |  |  |  | 41%
C[C@@H]1O[C@@H](O[C@@H]2[C@@H](O[C@@H]3O[C@@H](C)[C@H](O[C@@H]4OC[C@H](O)[C@H](O[C@@H]5OC[C@@H](O)[C@H](O)[C@H]5O)[C@H]4O)[C@@H](O[C@@H]4OC[C@](O)(CO)[C@H]4O)[C@H]3O)[C@H](OC(=O)[C@]34CCC(C)(C)C[C@H]3C3=CCC5[C@@]6(C)CC[C@H](O[C@@H]7O[C@H](CO[C@@H]8OC[C@H](O)[C@H](O)[C@H]8O)[C@@H](O)[C@H](O)[C@H]7O)C(C)(C)C6CC[C@@]5(C)[C@]3(C)C[C@H]4O)OC[C@H]2O)[C@H](O)[C@H](O)[C@H]1O (stereo partly shown) [Astersaponin D] | 2 | x | x | 
C[C@@H]1O[C@@H](O[C@H]2[C@H](OC(=O)[C@]34CCC(C)(C)C[C@H]3C3=CC[C@@H]5[C@@]6(C)C[C@H](O)[C@H](O[C@@H]7O[C@H](CO[C@@H]8OC[C@H](O)[C@H](O)[C@H]8O)[C@@H](O)[C@H](O)[C@H]7O)C(C)(C)[C@@H]6CC[C@@]5(C)[C@]3(C)C[C@H]4O)OC[C@@H](O)[C@@H]2O)[C@H](O)[C@H](O)[C@H]1O[C@@H]1OC[C@H](O)[C@H](O[C@@H]2OC[C@@H](O)[C@H](O)[C@H]2O)[C@H]1O [Astersaponin E] | 2 | x | x | 
C[C@@H]1O[C@@H](O[C@H]2[C@H](OC(=O)[C@]34CCC(C)(C)C[C@H]3C3=CCC5[C@@]6(C)CC[C@H](O[C@@H]7O[C@H](CO[C@@H]8OC[C@H](O)[C@H](O)[C@H]8O)[C@@H](O)[C@H](O)[C@H]7O)C(C)(C)C6CC[C@@]5(C)[C@]3(C)C[C@H]4O)OC[C@@H](O)[C@@H]2O)[C@H](O)[C@H](O)[C@H]1O[C@@H]1OC[C@H](O)[C@H](O[C@@H]2OC[C@@H](O)[C@H](O)[C@H]2O)[C@H]1O (stereo partly shown) [Astersaponin F] | 1 | x | x | 
C[C@@H]1O[C@@H](O[C@@H]2[C@@H](O[C@@H]3O[C@@H](C)[C@H](O[C@@H]4OC[C@H](O)[C@H](O[C@@H]5OC[C@@H](O)[C@H](O)[C@H]5O)[C@H]4O)[C@@H](OC4OC[C@](O)(CO)[C@H]4O)[C@H]3O)[C@H](OC(=O)[C@]34CCC(C)(C)C[C@H]3C3=CCC5[C@@]6(C)C[C@H](O)[C@H](O[C@@H]7O[C@H](CO[C@@H]8OC[C@H](O)[C@H](O)[C@H]8O)[C@@H](O)[C@H](O)[C@H]7O)C(C)(C)C6CC[C@@]5(C)[C@]3(C)C[C@H]4O)OC[C@H]2O)[C@H](O)[C@H](O)[C@H]1O (stereo partly shown) [Astersaponin C] | 3 | x | x | 
C[C@@H]1O[C@@H](O[C@H]2[C@H](OC(=O)[C@]34CCC(C)(C)C[C@H]3C3=CCC5[C@@]6(C)C[C@H](O)[C@H](O[C@@H]7O[C@H](CO[C@@H]8OC[C@H](O)[C@H](O)[C@H]8O)[C@@H](O)[C@H](O)[C@H]7O)C(C)(C)C6CC[C@@]5(C)[C@]3(C)C[C@H]4O)OC[C@@H](O)[C@@H]2O)[C@H](O)[C@H](O[C@@H]2OC[C@](O)(CO)[C@H]2O)[C@H]1O[C@@H]1OC[C@H](O)[C@H](O[C@@H]2OC[C@@H](O)[C@H](O)[C@H]2O)[C@H]1O (stereo partly shown) [Astersaponin A] | 2 | x | x | 
